Source: ChEMBL document CHEMBL4334438, “Discovery of novel glycogen synthase kinase-3α inhibitors: Structure-based virtual screening, preliminary SAR and biological evaluation for treatment of acute myeloid leukemia” (Eur J Med Chem, 2019)

Legend:
[1] = tested on: Tyrosine-protein kinase Blk (Homo sapiens), P51451 [UNDEFINED MUTATION]; test: Inhibition of recombinant full length human BLK M287V mutant assessed as residual activity at 1 uM using poly(Glu, Tyr) 4:1 as substrate incubated for 40 mins in presence of [gamma-33ATP] by scintillation counting based radiometry assay relative to control
[2] = biological target: Mast/stem cell growth factor receptor Kit (Homo sapiens) (UniProt P10721); test: Inhibition of recombinant human c-Kit (544 to end residues) assessed as residual activity at 1 uM using poly(Glu, Tyr) 4:1 as substrate measured after 40 mins in presence of [gamma33P]ATP by scintillation counting method
[3] = biological target: Epidermal growth factor receptor (Homo sapiens) (UniProt P00533); test: Inhibition of recombinant human EGFR (696 to end residues) assessed as residual activity at 1 uM using poly(Glu, Tyr) 4:1 as substrate at 40 mins in presence of [gamma-33ATP] by scintillation counting based radiometry assay relative to control
Sequence of Epidermal growth factor receptor (Homo sapiens) (P00533 whole entry): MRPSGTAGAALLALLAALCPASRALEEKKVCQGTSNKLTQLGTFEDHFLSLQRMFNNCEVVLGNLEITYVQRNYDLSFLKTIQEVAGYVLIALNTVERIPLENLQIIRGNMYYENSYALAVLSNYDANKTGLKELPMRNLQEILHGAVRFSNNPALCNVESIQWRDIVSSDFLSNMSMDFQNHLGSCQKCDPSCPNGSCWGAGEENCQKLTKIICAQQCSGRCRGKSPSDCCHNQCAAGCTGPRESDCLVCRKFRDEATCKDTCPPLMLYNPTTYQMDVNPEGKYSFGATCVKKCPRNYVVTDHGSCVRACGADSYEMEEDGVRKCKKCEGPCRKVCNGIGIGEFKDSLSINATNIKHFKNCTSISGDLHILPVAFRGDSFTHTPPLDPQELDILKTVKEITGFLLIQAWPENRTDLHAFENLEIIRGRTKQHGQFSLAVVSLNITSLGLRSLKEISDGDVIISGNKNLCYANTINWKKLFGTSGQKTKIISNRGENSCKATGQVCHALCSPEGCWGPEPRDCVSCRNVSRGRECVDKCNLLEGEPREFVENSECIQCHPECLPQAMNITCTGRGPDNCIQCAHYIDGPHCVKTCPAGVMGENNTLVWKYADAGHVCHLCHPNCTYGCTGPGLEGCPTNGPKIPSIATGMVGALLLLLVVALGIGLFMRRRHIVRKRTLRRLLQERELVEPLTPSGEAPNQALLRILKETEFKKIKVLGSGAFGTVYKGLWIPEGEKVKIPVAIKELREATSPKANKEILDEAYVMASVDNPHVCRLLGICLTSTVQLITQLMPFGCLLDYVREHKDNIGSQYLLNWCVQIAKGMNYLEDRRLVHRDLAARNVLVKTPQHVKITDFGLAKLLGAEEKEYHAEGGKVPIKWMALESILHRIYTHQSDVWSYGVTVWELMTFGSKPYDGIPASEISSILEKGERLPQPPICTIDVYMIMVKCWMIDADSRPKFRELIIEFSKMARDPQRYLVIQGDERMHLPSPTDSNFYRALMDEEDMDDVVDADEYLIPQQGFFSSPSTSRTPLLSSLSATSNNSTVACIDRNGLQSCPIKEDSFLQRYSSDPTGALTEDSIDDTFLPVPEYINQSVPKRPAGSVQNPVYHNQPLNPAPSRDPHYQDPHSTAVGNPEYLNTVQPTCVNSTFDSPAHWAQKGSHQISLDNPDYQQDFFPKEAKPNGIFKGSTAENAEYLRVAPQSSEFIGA

[4] = biological target: Beta-adrenergic receptor kinase 1 (Homo sapiens) (UniProt P25098); test: Inhibition of recombinant full length human GRK2 assessed as residual activity at 1 uM using casein as substrate at 40 mins in presence of [gamma-33ATP] by scintillation counting based radiometry assay relative to control
[5] = biological target: Homeodomain-interacting protein kinase 1 (Homo sapiens) (UniProt Q86Z02); test: Inhibition of human HIPK1 (158 to 555 residues) assessed as residual activity at 1 uM using myelin basic protein as substrate after 40 mins by [gamma-33ATP] radiometric assay relative to control
[6] = biological target: Eukaryotic translation initiation factor 2-alpha kinase 1 (Homo sapiens) (UniProt Q9BQI3); test: Inhibition of human HRI (140 to end residues) assessed as residual activity at 1 uM using RSRSRSRSRSRSRSR as substrate after 120 mins by [gamma-33ATP] radiometric assay relative to control
[7] = tested on: Hepatocyte growth factor receptor (Homo sapiens), P08581 [D1228N]; test: Inhibition of recombinant human MET A1209G/V1290L/D1246N mutant (974 to end residues) assessed as residual activity at 1 uM using KKKGQEEEYVFIE as substrate incubated for 40 mins in presence of [gamma-33ATP by scintillation counting based radiometry assay relative to control
[8] = tested on: Hepatocyte growth factor receptor (Homo sapiens), P08581 [M1250T]; test: Inhibition of recombinant human MET A1209G/V1290L/M1268T mutant (974 to end residues) assessed as residual activity at 1 uM using KKKGQEEEYVFIE as substrate incubated for 40 mins in presence of [gamma-33ATP by scintillation counting based radiometry assay relative to control
[9] = tested on: Hepatocyte growth factor receptor (Homo sapiens), P08581 [Y1230H]; test: Inhibition of recombinant human MET A1209G/V1290L/Y1248H mutant (974 to end residues) assessed as residual activity at 1 uM using KKKGQEEEYVFIE as substrate incubated for 40 mins in presence of [gamma-33ATP by scintillation counting based radiometry assay relative to control
[10] = biological target: Misshapen-like kinase 1 (Homo sapiens) (UniProt Q8N4C8); test: Inhibition of recombinant human MINK (1 to 310 residues) assessed as residual activity at 1 uM using myelin basic protein as substrate measured after 40 mins in presence of [gamma33P]ATP by scintillation counting method
Sequence of Misshapen-like kinase 1 (Homo sapiens) (Q8N4C8 whole entry, looked up, the tested form may be a part): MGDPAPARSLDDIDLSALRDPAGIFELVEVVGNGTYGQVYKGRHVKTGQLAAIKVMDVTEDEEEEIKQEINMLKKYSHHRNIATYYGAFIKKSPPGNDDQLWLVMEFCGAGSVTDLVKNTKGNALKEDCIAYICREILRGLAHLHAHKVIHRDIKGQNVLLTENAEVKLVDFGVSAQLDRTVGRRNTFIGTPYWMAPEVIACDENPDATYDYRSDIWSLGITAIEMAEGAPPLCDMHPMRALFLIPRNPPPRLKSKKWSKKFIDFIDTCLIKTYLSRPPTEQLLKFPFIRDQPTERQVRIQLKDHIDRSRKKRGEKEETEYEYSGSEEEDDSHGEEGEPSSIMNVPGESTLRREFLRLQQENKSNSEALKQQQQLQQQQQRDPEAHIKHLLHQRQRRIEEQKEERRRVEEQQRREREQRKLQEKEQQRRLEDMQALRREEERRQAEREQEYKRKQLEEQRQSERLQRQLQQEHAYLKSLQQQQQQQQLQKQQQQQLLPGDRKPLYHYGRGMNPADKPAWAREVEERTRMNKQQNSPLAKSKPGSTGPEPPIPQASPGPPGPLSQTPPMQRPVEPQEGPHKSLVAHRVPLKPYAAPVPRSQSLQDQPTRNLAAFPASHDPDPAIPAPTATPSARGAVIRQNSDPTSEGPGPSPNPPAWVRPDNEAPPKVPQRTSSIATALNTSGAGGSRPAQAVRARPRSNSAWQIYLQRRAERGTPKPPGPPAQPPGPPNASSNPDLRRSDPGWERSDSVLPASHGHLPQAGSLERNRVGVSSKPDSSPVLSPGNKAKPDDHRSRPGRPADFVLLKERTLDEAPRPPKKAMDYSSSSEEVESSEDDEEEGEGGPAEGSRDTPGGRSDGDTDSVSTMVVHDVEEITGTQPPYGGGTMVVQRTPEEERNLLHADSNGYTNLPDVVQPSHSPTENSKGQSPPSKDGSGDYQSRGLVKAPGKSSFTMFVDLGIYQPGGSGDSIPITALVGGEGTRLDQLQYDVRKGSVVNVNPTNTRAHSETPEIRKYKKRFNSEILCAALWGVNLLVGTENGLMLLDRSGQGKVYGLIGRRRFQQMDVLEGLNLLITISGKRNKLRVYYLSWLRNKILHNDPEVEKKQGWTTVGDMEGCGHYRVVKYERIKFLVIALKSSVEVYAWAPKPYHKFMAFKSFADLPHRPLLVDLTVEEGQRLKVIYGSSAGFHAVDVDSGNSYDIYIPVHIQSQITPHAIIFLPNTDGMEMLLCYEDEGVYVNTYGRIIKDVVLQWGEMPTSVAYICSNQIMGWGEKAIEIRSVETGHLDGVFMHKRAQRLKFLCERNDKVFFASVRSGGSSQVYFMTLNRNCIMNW

[11] = biological target: Serine/threonine-protein kinase Nek9 (Homo sapiens) (UniProt Q8TD19); test: Inhibition of recombinant human NEK9 (1 to 324 residues) assessed as residual activity at 1 uM using myelin basic protein as substrate measured after 40 mins in presence of [gamma33P]ATP by scintillation counting method relative to control
[12] = biological target: Serine/threonine-protein kinase PAK 4 (Homo sapiens) (UniProt O96013); test: Inhibition of recombinant human PAK4 (295 to end residues) assessed as residual activity at 1 uM using myelin basic protein as substrate measured after 40 mins in presence of [gamma33P]ATP by scintillation counting method relative to control
[13] = tested on: Platelet-derived growth factor receptor alpha (Homo sapiens), P16234 [V561D]; test: Inhibition of human PDGFRalpha V561D mutant (550 to end residues) assessed as residual activity at 1 uM using GGMEDIYFEFMGGKKK as substrate measured after 40 mins in presence of [gamma33P]ATP by scintillation counting method relative to control
Sequence of Platelet-derived growth factor receptor alpha (Homo sapiens), P16234 [V561D] (P16234 whole entry V561D): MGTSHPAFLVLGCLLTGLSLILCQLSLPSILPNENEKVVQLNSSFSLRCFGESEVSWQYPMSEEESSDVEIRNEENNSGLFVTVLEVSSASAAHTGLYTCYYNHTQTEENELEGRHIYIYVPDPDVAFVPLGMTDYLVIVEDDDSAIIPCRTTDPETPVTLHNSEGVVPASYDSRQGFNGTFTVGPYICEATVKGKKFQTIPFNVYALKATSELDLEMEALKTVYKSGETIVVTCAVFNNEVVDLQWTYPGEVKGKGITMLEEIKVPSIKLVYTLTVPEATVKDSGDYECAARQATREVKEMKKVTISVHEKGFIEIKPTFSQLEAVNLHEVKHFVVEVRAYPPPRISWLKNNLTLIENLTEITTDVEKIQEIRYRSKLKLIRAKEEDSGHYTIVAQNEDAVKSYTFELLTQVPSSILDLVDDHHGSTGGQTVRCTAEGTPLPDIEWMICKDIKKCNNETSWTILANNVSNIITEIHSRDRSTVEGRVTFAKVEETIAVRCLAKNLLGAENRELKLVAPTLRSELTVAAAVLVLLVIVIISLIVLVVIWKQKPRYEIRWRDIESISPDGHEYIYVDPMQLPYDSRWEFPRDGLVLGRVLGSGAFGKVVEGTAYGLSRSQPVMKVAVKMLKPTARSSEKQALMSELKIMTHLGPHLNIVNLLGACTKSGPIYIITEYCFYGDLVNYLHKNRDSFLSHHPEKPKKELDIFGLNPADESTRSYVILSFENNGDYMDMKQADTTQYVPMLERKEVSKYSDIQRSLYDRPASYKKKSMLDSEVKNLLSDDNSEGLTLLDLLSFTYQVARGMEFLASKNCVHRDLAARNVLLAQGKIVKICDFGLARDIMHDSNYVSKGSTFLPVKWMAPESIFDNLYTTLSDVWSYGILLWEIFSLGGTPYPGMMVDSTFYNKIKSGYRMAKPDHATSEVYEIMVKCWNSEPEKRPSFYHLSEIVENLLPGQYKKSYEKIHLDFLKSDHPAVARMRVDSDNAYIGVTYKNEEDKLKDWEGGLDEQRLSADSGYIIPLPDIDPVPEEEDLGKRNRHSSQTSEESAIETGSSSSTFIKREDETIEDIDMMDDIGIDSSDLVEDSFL

[14] = biological target: Serine/threonine-protein kinase D2 (Homo sapiens) (UniProt Q9BZL6); test: Inhibition of recombinant full-length human PKD2 assessed as residual activity at 1 uM using KKLNRTLSVA as substrate measured after 40 mins in presence of [gamma33P]ATP by scintillation counting method relative to control
[15] = biological target: Proto-oncogene tyrosine-protein kinase receptor Ret (Homo sapiens) (UniProt P07949); test: Inhibition of recombinant human Ret (658 to end residues) assessed as residual activity at 1 uM using KKKSPGEYVNIEFG as substrate measured after 40 mins in presence of [gamma33P]ATP by scintillation counting method relative to control
[16] = tested on: Proto-oncogene tyrosine-protein kinase receptor Ret (Homo sapiens), P07949 [V804M]; test: Inhibition of recombinant human Ret V804M mutant (658 to end residues) assessed as residual activity at 1 uM using […] as substrate measured after 40 mins in presence of [gamma33P]ATP by scintillation counting method relative to control
[17] = biological target: Receptor-interacting serine/threonine-protein kinase 1 (Homo sapiens) (UniProt Q13546); test: Inhibition of recombinant human RIPK1 (8 to 322 residues) assessed as residual activity at 1 uM using myelin basic protein as substrate measured after 120 mins in presence of [gamma33P]ATP by scintillation counting method relative to control
Sequence of Receptor-interacting serine/threonine-protein kinase 1 (Homo sapiens) (Q13546 whole entry, the tested form may be a part): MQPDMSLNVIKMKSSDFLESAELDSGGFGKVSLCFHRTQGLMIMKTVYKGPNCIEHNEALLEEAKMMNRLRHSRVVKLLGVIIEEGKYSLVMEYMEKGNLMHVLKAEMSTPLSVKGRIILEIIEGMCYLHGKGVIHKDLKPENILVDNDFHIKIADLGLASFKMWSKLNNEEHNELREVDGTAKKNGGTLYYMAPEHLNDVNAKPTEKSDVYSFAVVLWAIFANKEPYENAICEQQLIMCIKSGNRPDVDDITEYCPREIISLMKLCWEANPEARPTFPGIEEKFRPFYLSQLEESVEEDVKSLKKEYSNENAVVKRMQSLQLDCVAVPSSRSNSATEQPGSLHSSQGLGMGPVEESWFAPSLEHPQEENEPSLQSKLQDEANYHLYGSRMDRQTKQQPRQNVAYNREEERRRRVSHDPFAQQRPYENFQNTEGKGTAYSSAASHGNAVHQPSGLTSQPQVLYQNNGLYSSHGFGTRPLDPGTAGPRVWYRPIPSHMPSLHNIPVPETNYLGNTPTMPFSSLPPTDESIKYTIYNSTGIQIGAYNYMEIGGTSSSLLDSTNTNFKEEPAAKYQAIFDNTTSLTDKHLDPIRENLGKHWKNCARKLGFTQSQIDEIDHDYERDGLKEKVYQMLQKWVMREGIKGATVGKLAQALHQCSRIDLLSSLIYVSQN

[18] = tested on: Serine/threonine-protein kinase Sgk1 (Homo sapiens), O00141 [S422D]; test: Inhibition of recombinant human SGK S422D mutant (60 to end residues) assessed as residual activity at 1 uM using GRPRTSSFAEGKK as substrate measured after 40 mins in presence of [gamma33P]ATP by scintillation counting method relative to control
[19] = biological target: Serine/threonine-protein kinase 33 (Homo sapiens) (UniProt Q9BYT3); test: Inhibition of recombinant full-length human STK33 at 1 uM assessed as residual activity at 1 uM using myelin basic protein as substrate measured after 40 mins in presence of [gamma33P]ATP by scintillation counting method relative to control
Sequence of Serine/threonine-protein kinase 33 (Homo sapiens) (Q9BYT3 whole entry, looked up, the tested form may be a part): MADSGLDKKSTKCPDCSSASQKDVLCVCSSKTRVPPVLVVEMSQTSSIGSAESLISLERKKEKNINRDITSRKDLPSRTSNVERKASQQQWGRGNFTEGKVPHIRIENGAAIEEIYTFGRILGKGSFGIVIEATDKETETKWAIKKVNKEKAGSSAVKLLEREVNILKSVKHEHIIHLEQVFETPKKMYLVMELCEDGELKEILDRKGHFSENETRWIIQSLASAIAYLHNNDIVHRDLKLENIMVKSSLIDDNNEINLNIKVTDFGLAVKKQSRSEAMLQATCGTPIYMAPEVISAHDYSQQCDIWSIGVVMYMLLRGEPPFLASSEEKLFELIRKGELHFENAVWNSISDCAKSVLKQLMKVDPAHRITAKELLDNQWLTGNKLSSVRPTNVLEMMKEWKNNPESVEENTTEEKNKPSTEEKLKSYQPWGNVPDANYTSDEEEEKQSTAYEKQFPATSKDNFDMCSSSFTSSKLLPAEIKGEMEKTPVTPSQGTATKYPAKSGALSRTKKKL

[20] = biological target: Phosphatidylinositol 3-kinase C2 domain-containing subunit gamma (Homo sapiens) (UniProt O75747); test: Inhibition of recombinant human PI3KC2gamma (468 to 1203 residues) at 1 uM assessed as residual activity at 1 uM using phosphatidylinositol as substrate measured after 40 mins by HTRF assay
[21] = biological target: Phosphatidylinositol 4-phosphate 5-kinase type-1 alpha (Homo sapiens) (UniProt Q99755); test: Inhibition of recombinant full-length human PIP5K1alpha at 1 uM assessed as residual activity at 1 uM using phosphatidylinositol 4-phosphate as substrate measured after 40 mins by HTRF assay

C=CCOC(=O)c1cc(-c2ccc(/C=C3/NC(=S)NC3=O)o2)ccc1Cl
Activity [1]: 93%
Activity [2]: 101%
Activity [3]: 106%
Activity [4]: 101%
Activity [5]: 5%
Activity [6]: 101%
Activity [7]: 114%
Activity [8]: 101%
Activity [9]: 116%
Activity [10]: 92%
Activity [11]: 101%
Activity [12]: 101%
Activity [13]: 110%
Activity [14]: 99%
Activity [15]: 102%
Activity [16]: 98%
Activity [17]: 106%
Activity [18]: 91%
Activity [19]: 96%
Activity [20]: 77%
Activity [21]: 98%

N=C1NC(=O)/C(=C\c2ccc(-c3cccc([N+](=O)[O-])c3)o2)S1
Activity [1]: 107%
Activity [2]: 112%
Activity [3]: 91%
Activity [4]: 98%
Activity [5]: 3%
Activity [6]: 96%
Activity [7]: 105%
Activity [8]: 82%
Activity [9]: 106%
Activity [10]: 85%
Activity [11]: 103%
Activity [12]: 92%
Activity [13]: 91%
Activity [14]: 103%
Activity [15]: 92%
Activity [16]: 95%
Activity [17]: 100%
Activity [18]: 98%
Activity [19]: 88%
Activity [20]: 90%
Activity [21]: 102%
